What follows are compounds tested against T1, TYK2 kinase domain (Homo sapiens, UniProt P29597) (assay: TYK2 inhibition assay (Caliper LabChip, isolated kinase domain)). Conditions: not given.
T1 construct: made in house; host or cells: SF9 insect cells (recombinant baculovirus)
T1 sequence (P29597 873-1187): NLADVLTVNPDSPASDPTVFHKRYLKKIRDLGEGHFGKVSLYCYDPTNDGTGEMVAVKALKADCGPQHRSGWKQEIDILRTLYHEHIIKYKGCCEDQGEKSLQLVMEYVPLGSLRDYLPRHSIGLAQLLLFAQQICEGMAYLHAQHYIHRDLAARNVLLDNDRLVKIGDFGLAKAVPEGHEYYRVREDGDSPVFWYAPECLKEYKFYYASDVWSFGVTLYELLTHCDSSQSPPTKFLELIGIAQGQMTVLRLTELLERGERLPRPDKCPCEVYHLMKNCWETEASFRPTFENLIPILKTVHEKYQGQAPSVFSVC
Format: biochemical
Text: The catalytically active kinase domain of human JAK1, JAK2, JAK3 or TYK2 was purified from extracts of SF9 insect cells infected with a recombinant baculovirus expression vector encoding the human JAK1, JAK2, JAK3 or TYK2 kinase domains (JAK1 amino acid residues N852-D1154 according to the numbering of GenBank sequence accession number P23458, JAK2 amino acid residues D812-G1132 according to the numbering of GenBank sequence accession number NP_004963.1; JAK3 amino acid residues S783-S1124 according to the numbering of GenBank sequence accession number P52333, and TYK2 amino acid residues N873-C1187 according to the numbering of GenBank sequence accession number P29597). The activity of the JAK1, JAK2, JAK3 or TYK2 kinase domains can be measured by a number of direct and indirect methods, including quantification of phosphorylation of peptide substrates derived from the human JAK3 protein (Saltzman et al., Biochem. Biophys. Res. Commun. 246:627-633 (2004)). The activity of the JAK1, JAK2, JAK3 or TYK2 kinase domains was measured in vitro by monitoring phosphorylation of JAK3 derived peptides using the Caliper LabChip technology (see Examples).
The activity of the isolated JAK1, JAK2 or TYK2 kinase domain was measured by monitoring phosphorylation of a peptide derived from JAK3 (SEQ ID NO:1 […] fluorescently labeled on the N-terminus with 5-carboxyfluorescein using the Caliper LabChip technology (Caliper Life Sciences, Hopkinton, Mass.). […] Reactions were incubated at 22° C. in 384-well polypropylene microtiter plates for 30 minutes and then stopped by addition of 25 uL of an EDTA containing solution (100 mM Hepes pH 7.2, 0.015% Brij-35, 150 mM EDTA), resulting in a final EDTA concentration of 50 mM. After termination of the kinase reaction, the proportion of phosphorylated product was determined as a fraction of total peptide substrate using the Caliper LabChip 3000 according to the manufacturer's specifications. Ki values were then determined using the Morrison tight binding model. Morrison, J. F., Biochim. Biophys. Acta. 185:269-296 (1969); William, J. W. and Morrison, J. F., Meth. Enzymol., 63:437-467 (1979).
O=C(Nc1ccnc(NC(=O)[C@H]2C[C@@H]2c2nnn[nH]2)c1)c1c(Cl)cccc1Cl (relative stereo) [Example 320, N-(2-(trans-2-(1H-tetrazol-5-yl)cyclopropanecarboxamido)pyridin-4-yl)-2,6-dichlorobenzamide] was tested, and the Ki was roughly 52 nM. N#Cc1cc(Cl)c(C(=O)Nc2ccnc(NC(=O)C3CC3)c2)c(Cl)c1 [Example 256, 2,6-dichloro-4-cyano-N-(2-(cyclopropanecarboxamido)pyridin-4-yl)benzamide] showed a Ki of roughly 2 nM.

Same assay, conditions: isolated TYK2 kinase domain, 25 uM ATP; values given as 'about'; read-out: Ki values for TYK2 inhibition
Work on O=C(Nc1ccnc(NC(=O)[C@H]2C[C@H]2F)c1)c1c(Cl)cc(CO)cc1Cl (relative stereo) [Example 315, 2,6-dichloro-N-(2-(cis-2-fluorocyclopropanecarboxamido)pyridin-4-yl)-4-(hydroxymethyl)benzamide] yielded a Ki of roughly 8 nM. In the case of NC[C@H]1C[C@H]1C(=O)Nc1cc(NC(=O)c2c(F)cccc2Cl)ccn1 (relative stereo) [Example 608, cis-N-(2-(2-(aminomethyl)cyclopropanecarboxamido)pyridin-4-yl)-2-chloro-6-fluorobenzamide], the Ki is reported as roughly 140 nM. For O=C(Nc1ccnc(NC(=O)C2CC2)c1F)c1c(Cl)cccc1Cl (single isomer, unassigned) [Example 263, 2,6-dichloro-N-(3-fluoro-2-cyclopropanecarboxamidopyridin-4-yl)benzamide], the Ki was roughly 24 nM. Compound O=C(Nc1cc(NC(=O)C2CC2)ncc1F)c1c(Cl)cccc1Cl (single isomer, unassigned) [Example 264, 2,6-dichloro-N-(5-fluoro-2-cyclopropanecarboxamidopyridin-4-yl)benzamide] has a Ki of roughly 10 nM. O=C(Nc1ccc(NC(=O)C2CC2)nc1)c1c(Cl)cccc1Cl [2,6-dichloro-N-(6-(cyclopropanecarboxamido)-pyridin-3-yl)benzamide, reference compound] showed a Ki greater than 3500 nM. Nc1cc(NC(=O)c2c(Cl)cccc2Cl)ccn1 [Example 2, N-(2-aminopyridin-4-yl)-2,6-dichlorobenzamide] gave a Ki of roughly 850 nM. With O=C(Nc1ccncn1)c1c(Cl)cccc1Cl [Example 3, 2,6-dichloro-N-(pyrimidin-4-yl)benzamide] the Ki was roughly 720 nM. O=C(Nc1ccnc(Nc2nccs2)c1)c1c(Cl)cccc1Cl [Example 4, 2,6-dichloro-N-(2-(thiazol-2-ylamino)pyridin-4-yl)benzamide] gave a Ki of roughly 380 nM. For O=C(Nc1ccncc1)c1c(Cl)cc(-c2cc[nH]n2)cc1Cl [Example 11, 2,6-dichloro-4-(1H-pyrazol-3-yl)-N-(pyridin-4-yl)benzamide], the Ki was roughly 650 nM. Cc1ccc(Cl)c(C(=O)Nc2ccncc2)c1F [Example 17, 6-chloro-2-fluoro-3-methyl-N-(pyridin-4-yl)benzamide] gave a Ki of roughly 360 nM. Compound O=C(Nc1ccncc1)c1c(Cl)cc(CO)cc1Cl [Example 76, 2,6-dichloro-4-(hydroxymethyl)-N-(pyridin-4-yl)benzamide] has a Ki of roughly 220 nM. For COCCOc1ccc(Nc2cc(NC(=O)c3c(Cl)cccc3Cl)ccn2)cc1C(F)(F)F [Example 115, 2,6-dichloro-N-(2-(4-(2-methoxyethoxy)-3-(trifluoromethyl)phenyl-amino)pyridin-4-yl)benzamide], the Ki was roughly 570 nM. In the case of O=C(Nc1ccnc(NC2CC2)n1)c1c(Cl)cccc1Cl [Example 156, 2,6-dichloro-N-(2-(cyclopropylamino)-pyrimidin-4-yl)benzamide], the Ki is reported as roughly 990 nM. Compound O=C(Nc1ccnc(NC(=O)C2CC2)c1)c1c(Cl)cc(CO)cc1Cl [Example 178, 2,6-dichloro-N-(2-(cyclopropanecarboxamido)-pyridin-4-yl)-4-(hydroxymethyl)benzamide] has a Ki of roughly 5 nM. Work on Cc1cc(Nc2nccc(NC(=O)c3c(Cl)cc(C#N)cc3Cl)c2[N+](=O)[O-])nc(C)n1 [Example 238, 2,6-dichloro-4-cyano-N-(2-(2,6-dimethylpyrimidin-4-ylamino)-3-nitropyridin-4-yl)benzamide] yielded a Ki of roughly 450 nM. CN(C)C(=O)c1cc(Cl)c(C(=O)Nc2ccnc(NC(=O)C3CC3)c2)c(Cl)c1 [Example 260, 2,6-dichloro-N^1-(2-(cyclopropanecarboxamido)pyridin-4-yl)-N^4,N^4-dimethylterephthalamide] showed a Ki of roughly 27 nM. Work on O=C(Nc1ccncc1)c1ccccc1Br [Example 271, 2-bromo-N-(pyridine-4-yl)benzamide] yielded a Ki of roughly 810 nM. Compound O=C(Nc1ccncc1F)c1c(Cl)cccc1Cl [Example 272, 2,6-dichloro-N-(3-fluoropyridin-4-yl)benzamide] has a Ki of roughly 190 nM. Work on N#Cc1cc(Cl)c(C(=O)Nc2ccnc(N)c2)c(Cl)c1 [Example 281, N-(2-aminopyridin-4-yl)-2,6-dichloro-4-cyanobenzamide] yielded a Ki of roughly 93 nM. O=C(Nc1cc(NC(=O)c2c(Cl)cccc2Cl)ccn1)Oc1ccccc1 [Example 350, phenyl 4-(2,6-dichlorobenzamido)pyridin-2-ylcarbamate] showed a Ki of roughly 62 nM. Cc1cc(Nc2cc(NC(=O)c3c(Cl)cc(Cl)cc3Cl)ccn2)nc(N2CCOCC2)n1 [Example 380, 2,4,6-trichloro-N-(2-(6-methyl-2-morpholinopyrimidin-4-ylamino)pyridin-4-yl)benzamide] showed a Ki of roughly 3.5 nM. Cc1cc(Nc2cc(NC(=O)c3c(Cl)cc(CNCC4CC4)cc3Cl)ccn2)nc(N2CCOCC2)n1 [Example 406, 2,6-dichloro-4-((cyclopropylmethylamino)-methyl)-N-(2-(6-methyl-2-morpholinopyrimidin-4-ylamino)pyridin-4-yl)benzamide] was tested, and the Ki was roughly 3.6 nM. In the case of Cc1cc(Nc2cc(NC(=O)c3c(Cl)cc(C#N)cc3Cl)ccn2)nc(N(CCO)CCO)n1 [Example 415, N-(2-(2-(bis(2-hydroxyethyl)amino)-6-methylpyrimidin-4-ylamino)pyridin-4-yl)-2,6-dichloro-4-cyanobenzamide], the Ki is reported as roughly 0.5 nM. Cc1cc(Nc2cc(NC(=O)c3c(Cl)cc(CO)cc3Cl)ccn2)nc(NCCO)n1 [Example 416, 2,6-dichloro-N-(2-(2-(2-hydroxyethylamino)-6-methylpyrimidin-4-ylamino)pyridin-4-yl)-4-(hydroxymethyl)-benzamide] was tested, and the Ki was roughly 0.6 nM. Compound Cc1cc(Nc2cc(NC(=O)c3c(Cl)cccc3Cl)ccn2)nc(N)n1 [Example 495, N-(2-(2-amino-6-methylpyrimidin-4-ylamino)pyridin-4-yl)-2,6-dichlorobenzamide] has a Ki of roughly 1.5 nM. CCc1cc(Nc2cc(NC(=O)c3c(Cl)cccc3Cl)ccn2)nc(N2CCNCC2)n1 [Example 534, 2,6-dichloro-N-(2-(6-ethyl-2-(piperazin-1-yl)pyrimidin-4-ylamino)pyridin-4-yl)benzamide] showed a Ki of roughly 1.8 nM. Work on CNc1nc(Nc2cc(NC(=O)c3c(Cl)cccc3Cl)ccn2)cc(C(C)C)n1 [Example 551, 2,6-dichloro-N-(2-(6-isopropyl-2-(methylamino)pyrimidin-4-ylamino)pyridin-4-yl)benzamide] yielded a Ki of roughly 3.3 nM. CCc1cc(Nc2cc(NC(=O)c3c(Cl)cccc3Cl)ccn2)nc(N2CCC(F)(F)CC2)n1 [Example 572, 2,6-dichloro-N-(2-(2-(4,4-difluoropiperidin-1-yl)-6-ethylpyrimidin-4-ylamino)pyridin-4-yl)benzamide] was tested, and the Ki was roughly 80 nM. In the case of CCc1cc(Nc2cc(NC(=O)c3c(Cl)cccc3Cl)ccn2)nc(N(CCO)CCO)n1 [Example 579, N-(2-(2-(bis(2-hydroxyethyl)amino)-6-ethylpyrimidin-4-ylamino)pyridin-4-yl)-2,6-dichlorobenzamide], the Ki is reported as roughly 0.6 nM.

Same assay, conditions: measured at 10 μM concentration of compound
In the case of O=C(Nc1ccc(NC(=O)C2CC2)nc1)c1c(Cl)cccc1Cl [2,6-dichloro-N-(6-(cyclopropanecarboxamido)-pyridin-3-yl)benzamide, reference compound], the inhibition at 10 µM is reported as roughly 5.7%.

Reference: patent US8486950B2, “Janus kinase inhibitor compounds and methods” (F. Hoffmann-La Roche AG, priority 2009, dated 2013)
